# Results taken from ChEMBL document CHEMBL1158108, “C35 terpenoids from the bark of Calocedrus macrolepis var. formosana with activity against human cancer cell lines” (J Nat Prod, 2006).
# Tested on: KB
# Experiment: Cytotoxicity against human KB cells after 72 hrs
# Type: functional, cell-based
row,SMILES,IC50 [µM]
1,CC(C)c1cc2c(cc1O)[C@@]1(C)CCCC(C)(C)[C@@H]1C[C@H]2CC1=C[C@@H]2[C@@H](CC1)[C@](C)(O)CC[C@H]2C(C)C [FERRUGICADINOL],14.1
2,COc1cc([C@@H]2c3cc4c(cc3[C@@H](O[C@@H]3O[C@@H]5CO[C@@H](C)O[C@H]5[C@H](O)[C@H]3O)[C@H]3COC(=O)[C@H]23)OCO4)cc(OC)c1O [ETOPOSIDE],2
3,C=C1CC[C@@H]([C@H]2C[C@H]3C(C)(C)CCC[C@]3(C)c3cc(O)c(C(C)C)cc32)[C@]2(C)CC[C@@H](C(C)(C)O)C[C@@H]12 [FERRUGIEUDESMOL],11.4
